In US20220170930A1, “METHOD FOR SCREENING COMPOUND FOR TREATING OR PREVENTING POLYQ-RELATED NEURODEGENERATIVE DISEASES” (FUDAN UNIVERSITY, priority 2019, published 2022):

Tests used:
[1] = tested on: mHTT; test: Intracerebroventricular injection, mHTT and wtHTT in cortices of HD mice; assay type: in vivo, mouse; conditions: mouse, in vivo
Description: Experimental animals: Hdh^Q140/Q7 mice (3 months old), 4 in each group.
Each test includes three repetitions for each sample, and the mean values was calculated (FIG. 16).

[2] = tested on: Q25-GFP; test: OI-RD affinity screening with Q25-GFP; assay type: binding; conditions: OI-RD difference images
Description: (1) PolyQ-GFP cDNA sequence (expressing Met-polyQ-GFP, wherein polyQ was Q72 or Q25) was synthesized de novo and subcloned into pcDNA vector. […] And the same method was used to obtain cells expressing Q53-GFP, cells expressing Q46-GFP, and cells expressing Q38-GFP.

[3] = tested on: GFP; test: OI-RD affinity screening with GFP; assay type: binding; conditions: OI-RD difference images
Description: (§1) To identify compound(s) that can selectively bind to proteins containing expanded polyglutamine, screening was conducted using a method similar to 1.1, except for that the target protein HTTexon1-Q72-MBP in step (1) of 1.1 was replaced with the polyQ-GFP protein prepared in 10.1, and the target protein HTTexon1-Q25-MBP in step (2) of 1.1 was replaced with GFP.

[4] = tested on: proteins with expanded polyglutamine (polyQ-GFP); test: OI-RD affinity screening with polyQ-GFP proteins; assay type: binding; conditions: OI-RD difference images
Description: as §1

[5] = tested on: polyQ-GFP (Q72-GFP, Q25-GFP); test: polyQ-GFP level in HEK293T cells by Incucyte fluorescence counting; assay type: cell-based; conditions: Q72-GFP vs Q25-GFP expressing HEK293T cells, 100 nM compound 1, 100 nM compound 3 or 50 nM compound 4, 2 days
Description: (1) PolyQ-GFP cDNA sequence (expressing Met-polyQ-GFP, wherein polyQ was Q72 or Q25) was synthesized de novo and subcloned into pcDNA vector. It was transfected into HEK293T cells (ATCC, CRL-3216) through forward transfection to obtain Q72-GFP expressing cells and Q25-GFP expressing cells, respectively. And the same method was used to obtain cells expressing Q53-GFP, cells expressing Q46-GFP, and cells expressing Q38-GFP.
The Q72-GFP expressing cells and Q25-GFP expressing cells obtained in step (1) of 10.1 were used. […] Then the level of polyQ-GFP was measured by Incucyte fluorescence counting (FIG. 25).

[6] = biological target: T1, MBP-ATXN3-Q28 (Homo sapiens, UniProt P54252, INS305QQQQQQQQQQQQQQQQQQ); test: OI-RD affinity screening with MBP-ATXN3-Q28; assay type: binding; conditions: OI-RD difference images
T1 construct: His8 with TEV protease cleavage site; made in house; host or cells: Escherichia coli Rosetta(DE3)pLsyS
T1 sequence (P54252 with tags, fused parts or gaps isoform P54252-4 with the stated changes): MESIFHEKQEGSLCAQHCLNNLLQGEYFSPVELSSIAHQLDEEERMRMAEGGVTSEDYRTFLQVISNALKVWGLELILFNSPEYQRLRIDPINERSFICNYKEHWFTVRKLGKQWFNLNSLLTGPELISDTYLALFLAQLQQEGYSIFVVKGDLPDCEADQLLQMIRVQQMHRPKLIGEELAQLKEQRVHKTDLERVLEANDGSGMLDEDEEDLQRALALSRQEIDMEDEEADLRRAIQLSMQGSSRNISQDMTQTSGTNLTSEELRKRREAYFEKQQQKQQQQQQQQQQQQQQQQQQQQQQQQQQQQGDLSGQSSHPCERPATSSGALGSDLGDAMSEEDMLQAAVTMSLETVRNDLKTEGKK
Description: (§2) Screening was conducted using a method similar to 1.1, except for that the target protein HTTexon1-Q72-MBP in step (1) of 1.1 was replaced with MBP-ATXN3-Q68 and the target protein HTTexon1-Q25-MBP in step (2) of 1.1 was replaced with MBP-ATXN3-Q28, to obtain compounds that can selectively bind to ATXN3 with abnormally expanded polyQ (MBP-ATXN3-Q68).

[7] = biological target: T1, MBP-ATXN3-Q28; test: MST affinity with MBP-ATXN3-Q28; assay type: binding
Description: Protein concentration was 500 nM.

[8] = biological target: T2, mutant ATXN3 protein (ATXN3-Q74) (Homo sapiens, UniProt P54252, G306R/INS305QQQQQQQQQQQQQQQQQQQQQQQQQQQQQQQQQQQQQQQQQQQQQQQQQQQQQQQQQQQQQQQQ/V212M); test: Western-blot mutant ATXN3 level in SCA3 patient fibroblasts; assay type: cell-based; conditions: 100 nM (compound 4: 50 nM), 2 days
T2 construct: endogenous in cells; host or cells: SCA3 patient fibroblasts (Q74)
T2 sequence (P54252 with tags, fused parts or gaps isoform P54252-1 with the stated changes): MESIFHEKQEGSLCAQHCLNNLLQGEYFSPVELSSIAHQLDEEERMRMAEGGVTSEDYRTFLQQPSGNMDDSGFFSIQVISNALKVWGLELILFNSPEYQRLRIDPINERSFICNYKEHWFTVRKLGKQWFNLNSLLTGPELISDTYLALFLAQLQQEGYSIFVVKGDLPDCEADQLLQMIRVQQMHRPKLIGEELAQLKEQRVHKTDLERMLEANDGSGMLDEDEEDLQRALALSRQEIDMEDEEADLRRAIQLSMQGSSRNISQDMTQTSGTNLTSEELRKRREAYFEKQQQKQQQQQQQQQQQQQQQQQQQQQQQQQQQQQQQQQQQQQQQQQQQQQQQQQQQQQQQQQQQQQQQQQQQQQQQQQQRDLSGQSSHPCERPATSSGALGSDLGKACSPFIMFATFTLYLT
Description: (§3) Then the levels of mutant ATXN3 protein (ATXN3-Q74, SEQ ID NO: 2) and wild-type ATXN3 protein (ATXN3-Q27, SEQ ID NO: 7) were determined by Western-blots (FIG. 26). […] Therefore, the compound of the present invention can be used to treat SCA3.

[9] = biological target: T3, wild-type ATXN3 protein (ATXN3-Q27) (Homo sapiens, UniProt P54252, G306R/INS305QQQQQQQQQQQQQQQQQ/V212M); test: Western-blot wild-type ATXN3 level in fibroblasts; assay type: cell-based; conditions: 100 nM (compound 4: 50 nM), 2 days
T3 construct: endogenous in cells; host or cells: wild-type fibroblasts (Q27) and/or the normal allele in SCA3 patient fibroblasts
T3 sequence (P54252 with tags, fused parts or gaps isoform P54252-1 with the stated changes): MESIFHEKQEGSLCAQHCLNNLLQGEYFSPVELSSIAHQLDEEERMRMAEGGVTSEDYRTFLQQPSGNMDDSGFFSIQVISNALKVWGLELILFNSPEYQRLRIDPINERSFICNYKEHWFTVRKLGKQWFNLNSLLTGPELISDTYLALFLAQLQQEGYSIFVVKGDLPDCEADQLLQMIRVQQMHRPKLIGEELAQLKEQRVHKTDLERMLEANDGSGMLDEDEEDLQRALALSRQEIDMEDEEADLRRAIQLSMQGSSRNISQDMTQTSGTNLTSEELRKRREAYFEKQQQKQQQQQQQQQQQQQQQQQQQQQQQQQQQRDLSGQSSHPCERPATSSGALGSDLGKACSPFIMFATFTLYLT
Description: as §3

[10] = biological target: T4, His-ATXN1-Q92 (Homo sapiens, UniProt P54253, INS208QQQQQQQQQQQQQQQQQQQQQQQQQQQQQQQQQQQQQQQQQQQQQQQQQQQQQQQQQQQQQQQQQQQQQQQQQQQQQQQQ); test: OI-RD affinity screening with His-ATXN1-Q92; assay type: binding; conditions: OI-RD difference images
T4 construct: made in house; host or cells: HEK293T cells (ATCC, CRL-3216)
T4 sequence (P54253 with tags, fused parts or gaps with the stated changes): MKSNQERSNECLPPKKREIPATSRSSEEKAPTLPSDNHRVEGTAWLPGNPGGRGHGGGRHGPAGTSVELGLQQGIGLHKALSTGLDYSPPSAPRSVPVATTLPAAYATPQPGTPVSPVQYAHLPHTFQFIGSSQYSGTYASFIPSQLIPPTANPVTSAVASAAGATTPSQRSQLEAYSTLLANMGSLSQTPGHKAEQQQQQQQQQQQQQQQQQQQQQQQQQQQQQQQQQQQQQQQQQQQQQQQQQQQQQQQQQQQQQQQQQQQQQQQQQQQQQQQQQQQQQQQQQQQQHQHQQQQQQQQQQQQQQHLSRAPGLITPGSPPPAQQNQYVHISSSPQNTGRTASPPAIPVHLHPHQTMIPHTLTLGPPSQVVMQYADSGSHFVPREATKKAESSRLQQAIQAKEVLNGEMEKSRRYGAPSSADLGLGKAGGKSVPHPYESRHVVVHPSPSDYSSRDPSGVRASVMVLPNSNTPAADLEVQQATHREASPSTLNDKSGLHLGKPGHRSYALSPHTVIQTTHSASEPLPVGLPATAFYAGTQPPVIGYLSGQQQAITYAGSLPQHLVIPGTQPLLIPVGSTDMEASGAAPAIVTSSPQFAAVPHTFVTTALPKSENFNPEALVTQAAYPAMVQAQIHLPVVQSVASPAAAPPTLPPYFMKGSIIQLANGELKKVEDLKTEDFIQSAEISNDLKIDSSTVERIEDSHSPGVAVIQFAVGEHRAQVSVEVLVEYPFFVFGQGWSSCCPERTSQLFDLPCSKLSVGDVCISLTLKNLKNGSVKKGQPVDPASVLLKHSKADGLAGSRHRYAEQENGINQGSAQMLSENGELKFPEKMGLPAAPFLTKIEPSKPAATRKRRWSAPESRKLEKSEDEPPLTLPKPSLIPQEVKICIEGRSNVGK
Description: (1) PolyQ-ATXN1 cDNA (where polyQ is Q92) was synthesized de novo and subcloned into pcDNA vector. It transfected into HEK293T cells (ATCC, CRL-3216) to obtain cells expressing His-ATXN1-Q92 (SEQ ID NO: 3 with a His tag at the N-terminal).
(2) The His-ATXN1-Q92 expressed in (1) was purified to obtain ATXN1 with abnormally expanded polyQ.
To identify compound(s) that can bind to ATXN1 with abnormally expanded polyQ, screening was conducted using a method similar to step (1) of 1.1, except for that the target protein HTTexon1-Q72-MBP in step (1) of 1.1 was replaced with His-ATXN1-Q92.

[11] = biological target: T5, mutant ATXN1 protein (His-ATXN1-Q92) (Homo sapiens, UniProt P54253, INS208QQQQQQQQQQQQQQQQQQQQQQQQQQQQQQQQQQQQQQQQQQQQQQQQQQQQQQQQQQQQQQQQQQQQQQQQQQQQQQQQ); test: HTRF mutant ATXN1 level in His-ATXN1-Q92-expressing cells; assay type: cell-based; conditions: 100 nM, 2 days, anti-His-Tb/MW1-D2
T5 construct: expressed in transfected cells; host or cells: HEK293T cells (ATCC, CRL-3216)
T5 sequence (P54253 with tags, fused parts or gaps with the stated changes): as the sequence (P54253 with tags, fused parts or gaps with the stated changes) above

[12] = tested on: Q25-GFP; test: MST affinity with Q25-GFP
Description: (§4) The affinity of the compound with full-length HTT and LC3B was verified with micro thermophoresis (MST) using Monolith NT.115 instrument from NanoTemper Technologies. The reaction buffer was 20 mM HEPES, pH 7.4, 150 mM NaCl.

[13] = biological target: T6, MBP-ATXN3-Q68 (Homo sapiens, UniProt P54252, INS305QQQQQQQQQQQQQQQQQQQQQQQQQQQQQQQQQQQQQQQQQQQQQQQQQQQQQQQQQQ); test: MST affinity with MBP-ATXN3-Q68
T6 sequence (P54252 with tags, fused parts or gaps isoform P54252-4 with the stated changes): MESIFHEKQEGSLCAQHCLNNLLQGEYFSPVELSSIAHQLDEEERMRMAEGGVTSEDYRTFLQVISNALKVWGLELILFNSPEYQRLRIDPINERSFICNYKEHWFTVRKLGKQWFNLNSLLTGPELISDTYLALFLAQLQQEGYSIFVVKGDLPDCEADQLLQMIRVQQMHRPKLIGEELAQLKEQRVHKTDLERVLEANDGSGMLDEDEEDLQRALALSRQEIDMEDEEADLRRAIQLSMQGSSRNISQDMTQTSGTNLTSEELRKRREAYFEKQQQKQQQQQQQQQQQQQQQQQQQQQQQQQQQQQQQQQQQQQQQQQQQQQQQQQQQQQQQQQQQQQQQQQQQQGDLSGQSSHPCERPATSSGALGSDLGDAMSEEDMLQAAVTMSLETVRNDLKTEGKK
Description: as §4

[14] = biological target: T6, MBP-ATXN3-Q68; test: OI-RD affinity screening with MBP-ATXN3-Q68; assay type: binding; parameters: His8 with TEV protease cleavage site; made in house; host or cells: Escherichia coli Rosetta(DE3)pLsyS; conditions: OI-RD difference images
Description: as §2

O=C1Nc2ccc(Br)cc2/C1=C/c1cc(O)c(O)c(Br)c1 [compound 3]
mHTT level in cortices [1]: significantly reduced mHTT level
binding to Q25-GFP [2]: did not bind
binding to GFP [3]: did not bind
binding affinity to proteins with 38 or more glutamine repeats [4]: showed certain binding affinity
level of proteins containing expanded polyglutamine in cells (polyQ-GFP) [5]: can selectively reduce the level
binding to MBP-ATXN3-Q28 [6]: did not bind
binding affinity with normal ATXN3 protein (MBP-ATXN3-Q28) [7]: no binding affinity
mutant ATXN3 protein level [8]: A decrease in mutant ATXN3 protein level was observed
wild-type ATXN3 protein level [9]: no decrease in wild-type ATXN3 protein level was observed
binding to His-ATXN1-Q92 [10]: can bind
level of mutant ATXN1 protein (His-ATXN1-Q92) [11]: Decreased levels of mutant ATXN1 were observed
binding affinity to Q25-GFP [12]: no binding affinity
Kd [13]: 1.02 µM
binding to MBP-ATXN3-Q68 [14]: binded
